Broadly, the melting point is the temperature of the solid-liquid transition.

`CCSc1cc(C)nc(SCC)c1NC(=O)CN1CCN(CCSc2nc3cccc(C(F)(F)F)c3o2)CC1` yielded a melting point of 107 to 108 °C. To `O=C(NC(c1ccccc1)c1ccccc1)NS(=O)(=O)Cl` belongs 80 to 88 °C. In the case of `CC(=O)c1sc(N2CCN(CCCC(F)(F)F)C2=O)nc1C` it was 108 to 110 °C.

The molecule `CCOC=C(C(=O)OCC)C(=O)c1ccc(I)cc1Cl` gave a melting point of 237 to 240 °C.

In turn, `CC1(C)Oc2ccc(C#N)cc2C(NC(=O)Nc2ccc3c(c2)CCC3)C1O` (centres undefined) had a melting point of 235 to 237 °C. To `O=C1c2ccc(Cl)cc2CC1Cl` (centres undefined) belongs 63 to 66 °C; to `Cn1ccc2ccc(-c3ccc(C(F)(F)F)cc3)cc21`, 100 °C. To `O=c1[nH]nc(-c2sc3ccccc3c2Cl)o1` belongs 218 to 220 °C; to `CCOC(=O)CCc1cccc2c1Sc1cc(C#N)ccc1CC2`, 61 to 62 °C. To `O=S(=O)(c1ccc(Nc2nccc(Nc3ccc(F)cc3)n2)cc1)N(CCN1CCCC1)C1CCC2(CC1)OCCO2` belongs 155 °C; to `CCCOc1ccc(-c2cccc(/C=C/C(=O)OCC)c2)cc1OC`, 66 to 68 °C; to `CCOC(=O)Cc1nnc(-c2ccc(OC)cc2)n1-c1ccc(OC)cc1`, 156 °C. `COc1ccc(S(=O)(=O)N2C(=O)C(N)(c3ccccc3Cl)c3cc(Cl)ccc32)c([N+](=O)[O-])c1` (centres undefined) registered a melting point of 192 to 195 °C. To `COc1ccc(-c2cccc(C(=O)O)c2)c2cc(Cc3cccc(C(F)(F)F)c3)oc12` belongs 118 to 119 °C; to `CCOC(=O)c1cc(N=C=S)c(Cl)cc1Cl`, 45 to 46 °C. As for `COc1nc2nc(C(OC(C)=O)C3(Br)C(=O)N4C(C(=O)OCc5ccc([N+](=O)[O-])cc5)=CSC43)cn2c2c1CCC2` (centres undefined), the melting point turned out to be 119 °C. To `COc1ccc([C@H](Cc2ccncc2)c2ccccc2)cc1O` belongs 158 to 159 °C. `CCCCCCCCCCCCCCCCCCOCC(CO)OC(=O)N1CCOCC1` (centres undefined): the melting point is 48 to 49 °C. To `OC1(c2cc(F)cc(OCc3ccccc3)c2)CCOCC1` belongs 112 °C; to `CCCc1c(OCCCOc2ccc(C(=O)CCC(=O)O)c(Cl)c2)ccc(C(C)=O)c1O`, 143 to 144 °C; to `COc1cc(CCc2c(CO)ccc(OC)c2OC)cc(OC)c1`, 126 to 128 °C. `CC(c1ccc(O)cc1)(c1ccc(O)cc1)c1ccc(C(C)(c2ccc(O)cc2)c2ccc(O)cc2)cc1` returned a melting point of 307 °C. In the case of `CC1(C)Oc2ccc(-c3nnnn3CCCC(=O)O)cc2[C@@H](Oc2ccc(O)nn2)[C@]1(C)O` it was 116 to 126 °C; in that of `O=S1(=O)NCN(CCF)c2cc(Cl)c(Cl)cc21`, 156 to 157 °C; in that of `CCOc1ccc(C2(c3ccc(OC)cc3)CC2(Cl)Cl)cc1` (centres undefined), 114 to 117 °C. To `CCSC(=O)N(C=C(C#N)C#N)c1cccc(Cl)c1` belongs 68 °C; to `O=c1[nH]c2ccccc2c2c(=O)n(-c3ccccc3)[nH]c12`, more than 260 °C; to `COC(=O)c1ccc(Cc2cccc3ccc(C(N)=O)cc23)c(OC)c1`, 215 to 216 °C.

The molecule `CC1(C)OC(c2ccc(S(C)(=O)=O)cc2)=C(c2cc3ccccc3s2)C1=O` returned a melting point of 204 to 206 °C. Consider `COc1c([N+](=O)[O-])ccc2c1C(=O)CC1(CCN(C(C)=O)CC1)O2`, for which the melting point lay within 160 to 165 °C. `O=C(O)C(=CNc1ccc(O)c(=O)cc1)C(=O)O` registered a melting point of 175 to 176 °C.

`Ic1ccc(Cc2ccc(I)cc2)cc1` showed a melting point of 160 to 164 °C. `c1ccc(-n2c3ccccc3c3c2ccc2c4ccccc4n(-c4ccccc4)c23)cc1` registered a melting point of 166 °C. To `CC1(C)CCC(C)(C)c2cc(COc3ccccc3-c3ccccc3C(=O)O)ccc21` belongs 75 to 76 °C; to `COC(=O)C1=C(C)NC(C)=C(C(=O)OCCN(C)Cc2ccccc2)C1c1cc([N+](=O)[O-])ccn1` (centres undefined), 163 °C. To `COC(=O)c1cc2cc(N)ccc2o1` belongs 112 to 113 °C. `Nc1nc(N)c2ncn(C(O)C3C=CCC3)c2n1` (centres undefined): the melting point fell in the range of 152 to 155 °C. To `COc1ccc(Cc2cc3ccccc3c(=O)[nH]2)cc1` belongs 216 to 218 °C; to `CC(=O)NCc1cccc(Nc2nccc(-c3sc(C)nc3C)n2)c1`, 206 to 207 °C; to `Cc1csc(N2CCN(Cc3ccc(C(=O)NCc4ccccc4)cc3)C2=O)n1`, 185 to 186 °C.

`Cc1c(Cc2ccccc2)c(=O)n(Cc2ccccc2)c2cc(OCC(N)=O)cc(OCC(N)=O)c12` returned a melting point of 252 to 253 °C. In the case of `CCN(Cc1c(F)cccc1Cl)c1c([N+](=O)[O-])cc(C(F)(F)F)c(Cl)c1[N+](=O)[O-]` it was 118 to 125 °C; in that of `CCc1cnc(NC(=O)C2c3ccccc3Oc3ccccc32)o1`, 212 to 213 °C. The molecule `CCC(C)Nc1c([N+](=O)[O-])cc(C)c(C)c1[N+](=O)[O-]` (centres undefined) gave a melting point of 37 to 38.5 °C.

As for `Cc1nnc2c3c(c(NCCN4CCCC4)nn12)CCCC3`, the melting point lay within 184 to 186 °C. The molecule `CCOC(=O)c1cc(-n2c(=O)c3c(n(C)c2=O)CCC3)ccc1[N+](=O)[O-]` showed a melting point of 188 to 190 °C. To `CC(=O)NCCn1nnnc1Sc1ccc([N+](=O)[O-])cc1[N+](=O)[O-]` belongs 197 to 198 °C. To `COc1ccc(C(=O)NCCCSc2nnnn2C)cc1` belongs 118 to 122 °C; to `C=CCc1c(O)ccc2oc(C(=O)OCC)cc12`, 94 to 95 °C.

In turn, `CC(C)C[C@@H](C(=O)N[C@@H](C(C)C)[C@H](O)c1c(-c2ccccc2)c1=O)N(C)C(=O)OCc1ccccc1` had a melting point of 112 °C.

The molecule `Cc1nc(-c2ccc3c(c2)CCCC3)c(CC(Cl)C(=O)O)o1` (centres undefined) registered a melting point of 141 to 142 °C. To `OCc1cc(F)nc(F)c1F` belongs 48 to 49 °C; to `CCCCCCc1cc2c(cc1/C=C/c1ccc(C(=O)O)s1)C(C)(C)CCC2(C)C`, 164 to 165 °C. Turning to `CNC(=S)C1(c2cnc3ccccc3c2)CCCS1` (centres undefined), the melting point is 159 °C. In the case of `NC(=O)NN=Cc1ccc(Oc2ccncc2)cc1` it was 212 to 213 °C; in that of `Clc1ccc(CN2CCCCC2)cn1`, 48 °C; in that of `Cc1nnc(-c2ccc(Cl)c([N+](=O)[O-])c2)[nH]1`, 168 °C. In the case of `CC(C)n1c(S)nc(-c2ccc(F)cc2)c1-c1ccc(F)cc1` it was 308 to 312 °C. Molecule `COCCNC(=O)c1cccc(-c2cccc3cc(Cc4cccc(F)c4)sc23)c1` showed a melting point of 108 to 110 °C.

`CC1(C)CCC(C)(C)c2cc3cc(-c4ccc(C(=O)O)s4)ccc3cc21`: the melting point was in the range of 254 to 255 °C. `COc1c(C)c(C)c(OC)c(CCCCO)c1C` gave a melting point of 85.1 to 87.1 °C. To `O=CCOc1ccccc1OCC(F)(F)F` belongs 55.3 to 57.5 °C; to `CCC1(O)c2ccccc2C=Cc2ccccc21`, 63 to 65 °C. As to `O=C1c2ccccc2CCC1CN1CCC(O)(c2ccccc2)CC1` (centres undefined), the melting point was 164 to 167 °C. `CN(C)C1CCN(c2nc(N3CCOCC3)c3ncnc(N(Cc4ccccc4)Cc4ccccc4)c3n2)CC1` had a melting point of 163 °C.

Molecule `NC(=O)CCc1c[nH]c2ccccc12` returned a melting point of 140 °C. In the case of `COC(=O)c1cc(S(C)(=O)=O)c(NS(=O)(=O)c2sc3ccc(Cl)cc3c2C)cc1C` it was 205 to 207 °C; in that of `COC(=O)/C(=N\OC1(C(=O)O)CCC1)c1ccco1`, 133 to 134 °C; in that of `CC1=C(C(=O)OCc2ccccc2)C(c2ccccc2C(F)(F)F)c2c(ccnc2OC(C)C)N1` (centres undefined), 131 °C. In the case of `Cc1ccsc1C=C(O)C(=O)O` it was 184 to 185 °C; in that of `CNC(=O)Oc1ccc(CN2CCN(c3ccc([N+](=O)[O-])cc3)CC2)cc1OC`, 155 to 157 °C. For `CN(c1cccc2cc(C3=NCC(CC(=O)O)S3)[nH]c12)S(=O)(=O)c1ccccn1` (centres undefined), the melting point was in the range of 231 to 233 °C.

In turn, `Nc1nc2c(ncn2COCCO)c(=S)[nH]1` showed a melting point of 251 to 254 °C. To `COCC1(O)CCN(c2ccc(N3C[C@H](CNC(C)=O)OC3=O)cc2F)CC1` belongs 80 to 82 °C; to `CC(C)(C)[Si](C)(C)OC1CCCc2cnc3cc(O)ccc3c21` (centres undefined), 248 to 250 °C. In the case of `COc1cc2c(c(Cl)c1Cl)C(=O)C(C)(C)C2(C)c1ccccc1` (centres undefined) it was 189 to 190 °C; in that of `Cc1c(Cc2ccccc2)c(=O)oc2cc(OCC(=N)NO)cc(OCC(=N)NO)c12`, 155 to 160 °C. To `C=C(C)c1nn(-c2c(Cl)cc(C(F)(F)F)cc2Cl)cc1C1CC1(Br)Br` (centres undefined) belongs 86.5 to 88.2 °C; to `CCCCCCCCCCCCCCCCC[C@@H](O)C[C@H]1OC(=O)[C@@H]1CCC`, 84 to 85 °C.

On to `CS(=O)(=O)c1[nH]nc(-c2ccc(F)cc2)c1-c1ccncc1`, for which the melting point fell in the range of 297 to 300 °C. The molecule `Cc1[nH]c2ccc(O)cc2c1C(=O)NC1CCN(CCc2ccccc2)CC1` gave a melting point of 232 to 236 °C. In the case of `CCCCCC(=O)Oc1ccc(-c2ccc(C#N)cc2)cc1` it was 56.1 °C. To `COc1ccc2c(c1)C1=C[C@@H](C(=O)NC(C)(C)C)CN(C)[C@@H]1CO2` (relative stereo) belongs 188 to 189 °C; to `CC1CN(c2ccc(C(N)=O)cc2)CC(C)N1CCC1OCCc2ccccc21` (centres undefined), 206 to 207 °C; to `Oc1ncnc2c1c(Nc1ccccc1)nn2Cc1ccccc1`, 246 to 247 °C.

In turn, `CCNC(=O)CCCC1CCN(Cc2cnc3cc(NC(=O)c4ccc(-c5ccc(F)cc5)cc4)c(C)cc3c2)CC1` yielded a melting point of 240 °C. Consider `CCCC(=O)c1cnc2c(C)cccc2c1Nc1ccccc1CC`, for which the melting point is 117 to 119 °C. `CCC(CC)N1CC2=C3C(=NN(c4ccc(C(C)C)cc4Br)C(=O)N3CC2)C(C)=N1` yielded a melting point of 149 to 150 °C. In turn, `O=C(O)C=CC=CC=CC1=Cc2cc(-c3ccccc3)ccc2OC1` gave a melting point of 260 °C.

Source of the values: a melting point compilation (Tetko et al.; mined from patent text by program, amines drawn as free bases though some values may be those of a salt).
